Measurements published in the supplement of paper PMC4977894.
± gives the standard deviation of the averaged measurements.

Assays:
[1] = test system: Homo sapiens (human subject panel, olfactory perception); experiment: perceived odor familiarity rating (rating 0-100); higher = more familiar
In short: (§1)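 Stimuli were molecules diluted in paraffin oil at high and low concentrations, with 1 mL of each sniffed in randomized order across ten visits of 100 stimuli. Participants were 55 healthy humans aged 18–50, excluding the six lowest performers. Subjects who smelled a stimulus moved a computerized slider away from its starting point of 50, and positions were rescaled to 0–100. Familiarity, intensity and pleasantness are each reported as an average over subjects.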

[2] = test system: Homo sapiens (human subject panel, olfactory perception); experiment: perceived odor pleasantness rating (rating 0-100); higher = more pleasant
In short: as §1

[3] = test system: Homo sapiens (human subject panel, olfactory perception); experiment: perceived odor intensity rating (rating 0-100); higher = stronger perceived smell
In short: as §1

[4] = odor dilution in paraffin oil: 1/1,000
[5] = odor dilution in paraffin oil: 1/100,000
[6] = odor dilution in paraffin oil: 1/10,000,000
[7] = odor dilution in paraffin oil: 1/10

Row | SMILES | perceived odor familiarity rating [1, 4] | perceived odor familiarity rating [1, 5] | perceived odor pleasantness rating [2, 4] | perceived odor pleasantness rating [2, 5] | perceived odor intensity rating [3, 4] | perceived odor intensity rating [3, 5] | perceived odor familiarity rating [1, 6] | perceived odor pleasantness rating [2, 6] | perceived odor intensity rating [3, 6] | perceived odor familiarity rating [1, 7] | perceived odor pleasantness rating [2, 7] | perceived odor intensity rating [3, 7]
1 | CCOC(=O)CC(C)O (stereo unspecified) [ethyl-3-hydroxybutyrate] | 62 ± 31 | 37.4 ± 29 | 75.4 ± 18 | 42 ± 23 | 58.1 ± 32 | 38.3 ± 32 | – | – | – | – | – | –
2 | CCCC(O)CC(=O)OCC (stereo unspecified) [ethyl-3-hydroxyhexanoate] | 54.2 ± 28 | 40.1 ± 31 | 47.3 ± 27 | 54.4 ± 23 | 60.3 ± 24 | 25.1 ± 27 | – | – | – | – | – | –
3 | CCc1ccccc1 [ethylbenzene] | 51.4 ± 30 | 37 ± 33 | 35.2 ± 25 | 50.4 ± 19 | 75.5 ± 22 | 23 ± 24 | – | – | – | – | – | –
4 | C=CCc1ccc(O)c(OC)c1 [eugenol] | 73.6 ± 26 | 59.6 ± 32 | 67.6 ± 23 | 61.8 ± 25 | 74.6 ± 21 | 60.4 ± 26 | – | – | – | – | – | –
5 | CCCCCCC1CCC(=O)O1 (stereo unspecified) [gamma-decalactone] | 51.5 ± 32 | 46.4 ± 30 | 64.9 ± 27 | 61.4 ± 20 | 54 ± 28 | 33.2 ± 28 | – | – | – | – | – | –
6 | CC1CCC(=O)O1 (stereo unspecified) [gamma-valerolactone] | 38.9 ± 31 | 29.3 ± 28 | 51.4 ± 25 | 51.3 ± 22 | 26.9 ± 30 | 14.7 ± 20 | – | – | – | – | – | –
7 | CC(C)=CCC/C(C)=C/CO [geraniol] | 51.8 ± 31 | 57 ± 30 | 59.2 ± 25 | 62.1 ± 27 | 71.8 ± 24 | 42.3 ± 30 | – | – | – | – | – | –
8 | CC(=O)OC/C=C(\C)CCC=C(C)C [geranyl acetate] | – | 36.4 ± 31 | – | 54.4 ± 19 | – | 16.3 ± 19 | 38.7 ± 32 | 47.9 ± 25 | 20.4 ± 24 | – | – | –
9 | OCC(O)CO [glycerol] | 31.8 ± 30 | – | 42.7 ± 25 | – | 26.8 ± 29 | – | – | – | – | 33.6 ± 28 | 48.1 ± 31 | 31.2 ± 33
10 | CCCCCCCO [heptanol (replicate)] | 51.9 ± 33 | 39.9 ± 29 | 48.5 ± 29 | 58 ± 23 | 72.2 ± 24 | 29.7 ± 30 | – | – | – | – | – | –
11 | CCCCCCCO [heptanol] | 50.3 ± 30 | 44.9 ± 31 | 52.7 ± 25 | 59.6 ± 23 | 62.7 ± 27 | 30.3 ± 28 | – | – | – | – | – | –
12 | CCCCCCCOC(C)=O [heptyl acetate] | 42.6 ± 31 | – | 61.6 ± 22 | – | 37.1 ± 31 | – | – | – | – | 55.8 ± 34 | 53.4 ± 32 | 82.2 ± 18
13 | CCCCCCO [hexanol] | 58.7 ± 28 | 42.7 ± 27 | 58.2 ± 27 | 49.4 ± 26 | 61.5 ± 29 | 26 ± 27 | – | – | – | – | – | –
14 | CCCCCCOC(C)=O [hexyl acetate] | 58.2 ± 30 | 29.9 ± 26 | 63.1 ± 24 | 53.7 ± 23 | 58 ± 30 | 12.7 ± 17 | – | – | – | – | – | –
15 | CCCCCCOC(=O)CCC [hexyl butyrate] | 44.1 ± 30 | 35.8 ± 27 | 34.1 ± 25 | 43.9 ± 16 | 45.6 ± 34 | 19.4 ± 21 | – | – | – | – | – | –
16 | CC(C)CCO [isoamyl alcohol] | 50.8 ± 33 | 25.9 ± 21 | 51 ± 33 | 39.2 ± 25 | 63.5 ± 32 | 23.4 ± 26 | – | – | – | – | – | –
17 | CC(=O)OCC(C)C [isobutyl acetate] | 72.1 ± 24 | 39.2 ± 27 | 56 ± 28 | 50 ± 22 | 75.9 ± 22 | 33.5 ± 30 | – | – | – | – | – | –
18 | CC=Cc1ccc(OC(C)=O)c(OC)c1 [isoeugenol acetate] | 58.8 ± 28 | – | 66.8 ± 25 | – | 46.1 ± 28 | – | – | – | – | 57.1 ± 31 | 58.3 ± 26 | 57.6 ± 30

Row | SMILES | perceived odor familiarity rating [1, 4] | perceived odor familiarity rating [1, 5] | perceived odor pleasantness rating [2, 4] | perceived odor pleasantness rating [2, 5] | perceived odor intensity rating [3, 4] | perceived odor intensity rating [3, 5] | perceived odor familiarity rating [1, 6] | perceived odor pleasantness rating [2, 6] | perceived odor intensity rating [3, 6] | perceived odor familiarity rating [1, 7] | perceived odor pleasantness rating [2, 7] | perceived odor intensity rating [3, 7]
19 | CC(=O)OCCC(C)C [isopentyl acetate] | 55.5 ± 32 | 51 ± 35 | 59.3 ± 25 | 65.2 ± 23 | 58.3 ± 31 | 45.9 ± 30 | – | – | – | – | – | –
20 | CC(=O)OC(C)C [isopropyl acetate (replicate)] | 46.2 ± 33 | 44.5 ± 32 | 41.3 ± 23 | 49.9 ± 25 | 49.4 ± 34 | 22.7 ± 22 | – | – | – | – | – | –
21 | CC(=O)OC(C)C [isopropyl acetate] | 40.1 ± 30 | 47.6 ± 27 | 51.5 ± 21 | 50 ± 23 | 13.3 ± 20 | 20.2 ± 23 | – | – | – | – | – | –
22 | CC(C)CC(=O)O [isovaleric acid] | – | 54.3 ± 33 | – | 12.9 ± 19 | – | 82 ± 20 | 48 ± 31 | 20.7 ± 22 | 58.5 ± 30 | – | – | –
23 | CC1(C)C(=O)[C@@]2(C)CC[C@H]1C2 [l-fenchone] | 58.3 ± 31 | 33.1 ± 32 | 44.6 ± 28 | 49.3 ± 26 | 64.5 ± 31 | 9.45 ± 15 | – | – | – | – | – | –
24 | C=CC1(C)CCC(C(C)(C)O)O1 (stereo unspecified) [linalool oxide] | 42.8 ± 31 | 37 ± 28 | 46.5 ± 26 | 49.6 ± 19 | 44.4 ± 31 | 15.9 ± 19 | – | – | – | – | – | –
25 | COc1cccc(C=O)c1 [m-Anisaldehyde] | 47.4 ± 29 | 41.3 ± 30 | 53 ± 24 | 54 ± 25 | 48.7 ± 31 | 12.2 ± 19 | – | – | – | – | – | –
26 | CO [methanol] | 30.9 ± 25 | – | 42.7 ± 22 | – | 18 ± 24 | – | – | – | – | 37.9 ± 29 | 39.5 ± 23 | 35 ± 30
27 | COC(=O)c1ccco1 [methyl 2-furoate] | 43.2 ± 29 | 39.5 ± 28 | 37.2 ± 24 | 48.7 ± 22 | 62.6 ± 25 | 33.8 ± 34 | – | – | – | – | – | –
28 | COC(C)=O [methyl acetate] | 29.6 ± 31 | – | 36.4 ± 19 | – | 23.9 ± 29 | – | – | – | – | 57.2 ± 28 | 26.9 ± 20 | 66.2 ± 28
29 | COC(=O)c1ccccc1 [methyl benzoate] | – | 35.1 ± 32 | – | 45.9 ± 23 | – | 36.1 ± 30 | 38 ± 32 | 47.8 ± 23 | 14.2 ± 22 | – | – | –
30 | CCCCCC(=O)OC [methyl caproate] | 56.4 ± 31 | 36.3 ± 31 | 56.2 ± 29 | 51.8 ± 22 | 68.4 ± 26 | 30.5 ± 29 | – | – | – | – | – | –
31 | C/C=C/c1ccc(OC)c(OC)c1 [methyl isoeugenol] | 48.2 ± 31 | 30.1 ± 24 | 58.8 ± 26 | 39.5 ± 23 | 37.9 ± 31 | 25.4 ± 35 | – | – | – | – | – | –
32 | COC(=O)c1ccccc1O [methyl salicylate] | 63.9 ± 32 | 38.1 ± 32 | 60.8 ± 26 | 56.7 ± 21 | 71.9 ± 22 | 16.7 ± 22 | – | – | – | – | – | –
33 | CSC [methyl sulfide] | 43.7 ± 34 | 47.3 ± 32 | 33.6 ± 27 | 33.4 ± 27 | 56.4 ± 35 | 58.8 ± 32 | – | – | – | – | – | –
34 | CC(=O)c1c(C)c([N+](=O)[O-])c(C(C)(C)C)c([N+](=O)[O-])c1C [musk ketone] | 50.2 ± 27 | – | 63.1 ± 25 | – | 49.3 ± 32 | – | – | – | – | 53 ± 30 | 65.2 ± 23 | 48.1 ± 34
35 | CCCCCCCCCO [nonanol] | 46.9 ± 29 | 35.6 ± 31 | 35.8 ± 24 | 42.9 ± 25 | 66.4 ± 26 | 28.5 ± 30 | – | – | – | – | – | –
36 | COc1ccccc1C=O [o-Anisaldehyde (replicate)] | 50.7 ± 31 | 46 ± 29 | 40.8 ± 28 | 40.3 ± 24 | 72.1 ± 23 | 36 ± 32 | – | – | – | – | – | –
